Measured values published in patent publication US20200061155A1, “COMPOSITIONS AND METHODS FOR TREATING LYNX2 DISORDERS” (OPHIDION, INC, priority 2017, published 2020).

Legend:
[1] = test system: basolateral amygdalar neurons of lynx2KO mice; test: spike timing dependent plasticity (post-pre stimulation), EPSC amplitude, perforated patch-clamp; assay type: cell-based, mouse; details: 10 μM DHPG for 15 min; lynx2KO neurons (FIG. 8E)
Protocol: Spike timing (i.e., Δt in ms) was determined between the onset of the EPSP and the peak of the AP. […] Post-pre stimulation was given tp determine the level of LTD. x-axis is time in minutes, y axis is EPSC amplitude, normalized and presented as a percentage (baseline set to 100). Baseline is EPSC amplitude before post-pre stimulation.
For activation of mGluR receptor with DHPG (FIG. 8E) in a spike-timing dependent paradigm (post-pre stimulation) to elicit LTD. For exploration of the mechanism of anti-Hebbian LTP, mGluR5 agonist DHPG (10 μM, Tocris Bioscience, Bristol, UK) was administered for 15 min when the baseline recorded at least 10 min. […] Baseline is EPSC amplitude before post-pre stimulation.
Pairings were repeated 100 times. Pre-post (spike timings as positive) was set as a 1 EPSP/1 AP pairing (100 repeats at 1 Hz) or post-pre (spike timing as negative) with either 1 AP/1 EPSP pairing (100 repeats at 1 Hz). Spike timing (i.e., Δt in ms) was determined between the onset of the EPSP and the peak of the AP.

lynx2KO mice [2] = test: light dark box experiment (latency to enter dark enclosed environment); assay type: in vivo, mouse; details: lynx2KO mice under chronic stress with mec vs lynx2KO mice without mec (FIG. 2A)
Source text: FIG. 2A is a graph of the time in seconds (latency) for wild type (WT) (black bars) or lynx2 knock out (KO) (white bars) mice to enter a dark enclosed environment under conditions of saline, chronic stress, or chronic stress with administration of mecamylamine (mec) as indicated, according to embodiments of the present invention.

lynx2KO mice [3] = test: fear extinction experiment (noise previously paired with electric shock); assay type: in vivo, mouse; details: lynx2KO mice with mec vs lynx2KO mice without mec (FIGS. 2B-2C)
Protocol: FIG. 2B is a graph of fear observed in wild type (black circles) and lynx2KO mice (white triangles) after fear training (an electric shock depicted in yellow) associated with a noise for 24 hours followed by the same noise without the shock to measure the mouse's capability to lose the fear, according to embodiments of the present invention.
FIG. 2C is a graph of fear observed in lynx2KO mice during the fear extinction experiment of FIG. 2B with a group of lynx2KO mice receiving mecamylamine (mec), according to embodiments of the present invention.

[4] = test system: brain slices from lynx2 knockout (KO) mice; test: long term depression (LTD) of evoked fEPSPs in brain slices after theta pulse stimulation; assay type: cell-based, mouse; details: ACSF with 20 mM methyllycaconitine; lynx2KO slices; theta pulse stimulation (FIG. 4D)
Protocol: FIG. 4D is a graph of stimulating electrode traces from long term depression (LTD) experiments using extracellular recordings for evoked field excitatory post-synaptic potentials (fEPSPs) in […] (EC) brain slices in ACSF solution with […] methyllycaconitine (MLA) from lynx2 knockout (KO) mice before (left of zero minutes) and after (right of zero minutes) theta pulse stimulations (TSP), according to embodiments of the present invention.
Field excitatory postsynaptic potentials (fEPSPs) were evoked by 0.05 Hz test stimulus though a bipolar stimulating electrode placed on external Capsule (EC), and a glass pipette as recording electrode was filled with ACSF and placed in BLA. […] Access resistances were continuously monitored and neurons with more than 20% change of series resistance were excluded from data analysis.
The plasticity ratio was calculated from the average EPSP amplitude of the last 10 mins of baseline recording and the last 15 mins after high frequency or low stimulus, for LTP and LTD studies, respectively. […] For all experiments, treatment effects were analyzed with one-way ANOVA, followed by the appropriate post hoc tests. […]

NC(C(=O)O)c1cc(O)cc(O)c1 (stereo not shown) [DHPG, 3,5-dihydroxyphenylglycine]
synaptic plasticity (EPSC amplitude after post-pre stimulation) [1]: restores the abnormal synaptic plasticity in the lynx2KO neurons to normal levels

CNC1(C)C2CCC(C2)C1(C)C (stereo not shown) [mecamylamine]
latency to dark (lynx2KO mice [2]): increased latency to dark
ability to unlearn a fear associated with a noise (fear extinction) (lynx2KO mice [3]): increased ability to unlearn a fear associated with a noise

CCN1C[C@]2(COC(=O)c3ccccc3N3C(=O)C[C@H](C)C3=O)CC[C@H](OC)[C@@]34[C@@H]5C[C@H]6[C@H](OC)[C@@H]5[C@](O)(C[C@@H]6OC)[C@@](O)([C@@H](OC)[C@H]23)[C@@H]14 [methyllycaconitine]
induced long term depression (LTD) of fEPSPs [4]: able to rescue induced long term depression (LTD)
